Converted amounts (≈) assume the structure as drawn.
How the values were obtained:
Test in all cases: minimal inhibitory concentration, two-fold agar dilution
Assay type in all cases: cell-based
[1] = tested on: Pseudomonas aeruginosa ATCC 25619; settings: ATCC25619, Muller-Hinton agar, 37°C, 20 hours, read-out: MIC values against the standard strains
Description: (§1) These MIC values were taken by employing a two-fold dilution method: that is, two-fold serial dilutions of each of the test compounds were made and dispersed in a Muller-Hinton agar medium; 2µl of the standard test strain which had the 10⁷ CFU(Colony Forming Unit) per ml was inoculated on the medium; and these were incubated at 37°C for 20 hours.

[2] = tested on: Serratia marcescens ATCC 27117; settings: ATCC27117, Muller-Hinton agar, 37°C, 20 hours, read-out: MIC values against the standard strains
Description: as §1

[3] = tested on: Klebsiella pneumoniae ATCC 10031; settings: ATCC10031, Muller-Hinton agar, 37°C, 20 hours, read-out: MIC values against the standard strains
Description: as §1

[4] = tested on: Providencia rettgeri ATCC 9250; settings: ATCC9250, Muller-Hinton agar, 37°C, 20 hours, read-out: MIC values against the standard strains
Description: as §1

[5] = tested on: Escherichia coli ATCC 25922; settings: ATCC25922, Muller-Hinton agar, 37°C, 20 hours, read-out: MIC values against the standard strains
Description: as §1

[6] = tested on: Staphylococcus aureus ATCC 6538p; settings: ATCC6538P, Muller-Hinton agar, 37°C, 20 hours, read-out: MIC values against the standard strains
Description: as §1

[7] = tested on: Shigella flexneri ATCC 11836; settings: ATCC11836, Muller-Hinton agar, 37°C, 20 hours, read-out: MIC values against the standard strains
Description: as §1

[8] = tested on: Proteus vulgaris ATCC 6059; settings: ATCC6059, Muller-Hinton agar, 37°C, 20 hours, read-out: MIC values against the standard strains
Description: as §1

[9] = tested on: Pseudomonas aeruginosa ATCC 10145; settings: ATCC10145, Muller-Hinton agar, 37°C, 20 hours, read-out: MIC values against the standard strains
Description: as §1

[10] = tested on: Citrobacter freundii ATCC 8090; settings: ATCC8090, Muller-Hinton agar, 37°C, 20 hours, read-out: MIC values against the standard strains
Description: as §1

[11] = tested on: Shigella sonnei ATCC 11060; settings: ATCC11060, Muller-Hinton agar, 37°C, 20 hours, read-out: MIC values against the standard strains
Description: as §1

[12] = tested on: Enterobacter aerogenes ATCC 29751; settings: Klebsiella aerogenes, ATCC29751; Muller-Hinton agar; 37°C; 20 hours; read-out: MIC values against the standard strains
Description: as §1

[13] = tested on: Streptococcus faecalis ATCC 29212; settings: Enterococcus faecalis, ATCC29212; Muller-Hinton agar; 37°C; 20 hours; read-out: MIC values against the standard strains
Description: as §1

[14] = tested on: Proteus mirabilis ATCC 25933; settings: ATCC25933, Muller-Hinton agar, 37°C, 20 hours, read-out: MIC values against the standard strains
Description: as §1

[15] = tested on: Bacillus megaterium ATCC 9885; settings: Priestia megaterium, ATCC9885; Muller-Hinton agar; 37°C; 20 hours; read-out: MIC values against the standard strains
Description: as §1

[16] = tested on: Escherichia coli ATCC 10536; settings: ATCC10536, Muller-Hinton agar, 37°C, 20 hours, read-out: MIC values against the standard strains
Description: as §1

[17] = tested on: Acinetobacter calcoaceticus ATCC 15473; settings: ATCC15473, Muller-Hinton agar, 37°C, 20 hours, read-out: MIC values against the standard strains
Description: as §1

[18] = tested on: Micrococcus luteus ATCC 9341; settings: ATCC9341, Muller-Hinton agar, 37°C, 20 hours, read-out: MIC values against the standard strains
Description: as §1

[19] = tested on: Enterobacter cloacae ATCC 27508; settings: ATCC27508, Muller-Hinton agar, 37°C, 20 hours, read-out: MIC values against the standard strains
Description: as §1

[20] = tested on: Salmonella typhimurium ATCC 14028; settings: Salmonella enterica; Muller-Hinton agar; 37°C; 20 hours; read-out: MIC values against the standard strains
Description: as §1

[21] = tested on: Morganella morganii ATCC 8076h; settings: ATCC8076H, Muller-Hinton agar, 37°C, 20 hours, read-out: MIC values against the standard strains
Description: as §1

[22] = tested on: Pseudomonas aeruginosa ATCC 27853; settings: ATCC27853, Muller-Hinton agar, 37°C, 20 hours, read-out: MIC values against the standard strains
Description: as §1

[23] = tested on: Bacillus cereus ATCC 11778; settings: ATCC11778, Muller-Hinton agar, 37°C, 20 hours, read-out: MIC values against the standard strains
Description: as §1

[24] = tested on: Staphylococcus epidermidis ATCC 12228; settings: ATCC12228, Muller-Hinton agar, 37°C, 20 hours, read-out: MIC values against the standard strains
Description: as §1

[25] = tested on: Staphylococcus aureus ATCC 10537; settings: ATCC10537, Muller-Hinton agar, 37°C, 20 hours, read-out: MIC values against the standard strains
Description: as §1

| SMILES | MIC [1] [µg/mL] | MIC [2] [µg/mL] | MIC [3] [µg/mL] | MIC [4] [µg/mL] | MIC [5] [µg/mL] | MIC [6] [µg/mL] | MIC [7] [µg/mL] | MIC [8] [µg/mL] | MIC [9] [µg/mL] | MIC [10] [µg/mL] | MIC [11] [µg/mL] | MIC [12] [µg/mL] | MIC [13] [µg/mL] | MIC [14] [µg/mL] | MIC [15] [µg/mL] | MIC [16] [µg/mL] | MIC [17] [µg/mL] | MIC [18] [µg/mL] | MIC [19] [µg/mL] | MIC [20] [µg/mL] | also measured |
| --- | --- | --- | --- | --- | --- | --- | --- | --- | --- | --- | --- | --- | --- | --- | --- | --- | --- | --- | --- | --- | --- |
| CCO/N=C(\C(=O)N[C@@H]1C(=O)N2C(C(=O)[O-])=C(CSc3nc(N)c(N)c[n+]3N)CS[C@H]12)c1csc(N)n1 [Example 46, 7-[(Z)-2-(2-aminothiazol-4-yl)-2-(ethoxyimino)acetamido]-3-(1,4,5-triaminopyrimidinium-2-yl)thiomethyl-3-cephem-4-carboxylate] | 0.5 (≈ 0.882 µM) | 0.25 (≈ 0.441 µM) | 0.063 (≈ 0.111 µM) | 0.031 (≈ 0.0547 µM) | 0.031 (≈ 0.0547 µM) | 0.25 (≈ 0.441 µM) | 0.031 (≈ 0.0547 µM) | 0.25 (≈ 0.441 µM) | 8 (≈ 14.1 µM) | 0.063 (≈ 0.111 µM) | 0.031 (≈ 0.0547 µM) | 1 (≈ 1.76 µM) | 8 (≈ 14.1 µM) | 0.25 (≈ 0.441 µM) | 0.063 (≈ 0.111 µM) | 0.031 (≈ 0.0547 µM) | 4 (≈ 7.06 µM) | 0.031 (≈ 0.0547 µM) | ≤ 0.008 | 0.25 (≈ 0.441 µM) | MIC [21]: 0.016 µg/mL (≈ 0.0282 µM); MIC [22]: 4 µg/mL (≈ 7.06 µM); MIC [23]: 64 µg/mL (≈ 113 µM); MIC [24]: 0.031 µg/mL (≈ 0.0547 µM); MIC [25]: 0.13 µg/mL (≈ 0.229 µM) |
| CC(C)(O/N=C(\C(=O)N[C@@H]1C(=O)N2C(C(=O)[O-])=C(CSc3nc(N)c(N)c[n+]3N)CS[C@H]12)c1csc(N)n1)C(=O)O [Example 47, 7-[(Z)-2-(2-aminothiazol-4-yl)-2-(carboxyprop-2-oxyimino)acetamido]-3-(1,4,5-triaminopyrimidinium-2-yl)thiomethyl-3-cephem-4-carboxylate] | 1 (≈ 1.6 µM) | 0.13 (≈ 0.208 µM) | 0.031 (≈ 0.0496 µM) | ≤ 0.008 | 0.031 (≈ 0.0496 µM) | 4 (≈ 6.4 µM) | 0.031 (≈ 0.0496 µM) | 0.063 (≈ 0.101 µM) | 2 (≈ 3.2 µM) | 0.031 (≈ 0.0496 µM) | 0.031 (≈ 0.0496 µM) | 1 (≈ 1.6 µM) | > 128 | 0.063 (≈ 0.101 µM) | 0.5 (≈ 0.8 µM) | 0.031 (≈ 0.0496 µM) | 16 (≈ 25.6 µM) | 0.25 (≈ 0.4 µM) | ≤ 0.008 | 0.13 (≈ 0.208 µM) | MIC [21]: ≤ 0.008 µg/mL; MIC [22]: 2 µg/mL (≈ 3.2 µM); MIC [23]: 128 µg/mL (≈ 205 µM); MIC [24]: 2 µg/mL (≈ 3.2 µM); MIC [25]: 2 µg/mL (≈ 3.2 µM) |
| CN(C)c1cc(N)nc(SCC2=C(C(=O)[O-])N3C(=O)[C@@H](NC(=O)/C(=N\OC(C)(C)C(=O)O)c4csc(N)n4)[C@H]3SC2)[n+]1C [Example 50, 7-[(Z)-2-(2-aminothiazol-4-yl)-2-(carboxyprop-2-oxyimino)acetamido]-3-{4-amino-1-methyl-6-(N,N-dimethyl)aminopyrimidinium-2-yl}thiomethyl-3-cephem-4-carboxylate] | 1 (≈ 1.53 µM) | 0.13 (≈ 0.199 µM) | 0.063 (≈ 0.0967 µM) | ≤ 0.008 | 0.063 (≈ 0.0967 µM) | 8 (≈ 12.3 µM) | 0.031 (≈ 0.0476 µM) | 0.031 (≈ 0.0476 µM) | 2 (≈ 3.07 µM) | 0.063 (≈ 0.0967 µM) | 0.063 (≈ 0.0967 µM) | 0.5 (≈ 0.767 µM) | > 128 | 0.031 (≈ 0.0476 µM) | 0.25 (≈ 0.384 µM) | 0.063 (≈ 0.0967 µM) | 4 (≈ 6.14 µM) | 0.25 (≈ 0.384 µM) | ≤ 0.008 | 0.13 (≈ 0.199 µM) | MIC [21]: ≤ 0.008 µg/mL; MIC [22]: 1 µg/mL (≈ 1.53 µM); MIC [23]: 128 µg/mL (≈ 196 µM); MIC [24]: 2 µg/mL (≈ 3.07 µM); MIC [25]: 4 µg/mL (≈ 6.14 µM) |
| Cc1c[n+](N)c(SCC2=C(C(=O)[O-])N3C(=O)[C@@H](NC(=O)/C(=N\OC(C)(C)C(=O)O)c4csc(N)n4)[C@H]3SC2)nc1N [Example 57] | 1 (≈ 1.6 µM) | 0.13 (≈ 0.208 µM) | 0.063 (≈ 0.101 µM) | ≤ 0.008 | 0.063 (≈ 0.101 µM) | 8 (≈ 12.8 µM) | 0.063 (≈ 0.101 µM) | 0.031 (≈ 0.0497 µM) | 2 (≈ 3.21 µM) | 0.031 (≈ 0.0497 µM) | 0.063 (≈ 0.101 µM) | 0.5 (≈ 0.802 µM) | > 128 | 0.031 (≈ 0.0497 µM) | 0.25 (≈ 0.401 µM) | 0.063 (≈ 0.101 µM) | 16 (≈ 25.7 µM) | 0.25 (≈ 0.401 µM) | ≤ 0.008 | 0.13 (≈ 0.208 µM) | MIC [21]: ≤ 0.008 µg/mL; MIC [22]: 2 µg/mL (≈ 3.21 µM); MIC [23]: 128 µg/mL (≈ 205 µM); MIC [24]: 2 µg/mL (≈ 3.21 µM); MIC [25]: 2 µg/mL (≈ 3.21 µM) |

Reference: patent publication EP0584797A2, “Novel cephalosporin compounds and processes for the preparation thereof” (LUCKY LTD., priority 1992, dated 1994)
